Results taken from PMC7262662 (BioMed Research International, 2020).
Marks after values point to notes of the source that are not given here.

Key:
FIPV strain WSU 79-1146 = experiment: Cytopathic effect inhibition assay (time of addition, MTT); type: cell-based, feline infectious peritonitis virus
Method: The cytopathic effect (CPE) inhibition assay with slight modifications was used as previously described. […] In pretreatment, the compounds were included in the cell culture medium for 8 h and were removed prior to virus infection. In cotreatment, the compounds were mixed with virus in the medium, added simultaneously to the cells, and left on the cells throughout. For posttreatment, the compounds were added to the cells 2 h postinfection (hpi) and remained throughout the time of infection. […] After incubation at 37°C for 48 and 72 h, the cell viability was determined by MTT.
The percentage of protection was calculated based on the OD using the following formula: (3) Percentage of protection %=OD570 T−OD570 V/OD570 C−OD570 V×100, where T is the treated sample, V is the virus-infected control, and C is the negative control.
The median effective concentration (EC50) is the concentration of compound required to achieve 50% protection against virus-induced CPE.

FIPV = experiment: Antiviral assay in cotreatment: viral RNA quantification by qPCR; type: cell-based, feline infectious peritonitis virus; conditions: for % log10 copy number decrement: compared to FIPV sample; for 3′UTR log10 copy number: cotreatment
Method: CrFK cells at a density of 1 × 10^5 were cultured in medium in 24-well plates for 24 h at 37°C. […] The culture supernatant was centrifuged at 700 g for 10 min, and the virus-containing supernatant was collected and used for virus quantification.
Viral RNA was extracted from the collected supernatant using a Viral Nucleic Acid Extraction Kit II (Geneaid, New Taipei City, Taiwan) following the protocol provided by the manufacturer. Cellular total RNA was extracted from the CrFK cell pellet using the RNeasy® Mini Kit, which includes DNase treatment (QIAGEN, Germantown, MD, USA). The concentration and purity of the extracted RNA were quantified using the Eppendorf BioSpectrometer® kinetic (Eppendorf, Hamburg, Germany). The extracted RNA was stored at -80°C until further use.
Complementary DNA (cDNA) was prepared, and viral mRNA was quantified using quantitative PCR (qPCR) employing previously described methods. The qPCR results were quantified using the absolute quantification approach, where a standard curve of a serial dilution of viral cDNA template was plotted before the quantification.

different cells = system: different cells; set-up: method as in PMID 23658730, doi:10.4236/aim.2016.64027, PMID 20603153; conditions: ref [19], [60], [61]; cited from earlier work

With `COc1cc(/C=C/C(=O)CC(=O)/C=C/c2ccc(O)c(OC)c2)ccc1O` [Curcumin] the SI (FIPV strain WSU 79-1146; 48 h, CC50/EC50) was 3.72, the EC50 (FIPV strain WSU 79-1146; Alphacoronavirus 1, 48 h, 50% protection against virus-induced CPE, 100 TCID50 FIPV in CrFK cells) was 15.9 µM and the Percentage of protection (FIPV strain WSU 79-1146; cotreatment, 48 h, 5 μM) was 21.98 ± 7.01^b %. The Percentage of protection (FIPV strain WSU 79-1146; cotreatment, 48 h, 10 μM) was 40.08 ± 3.71^d %, the Percentage of protection (FIPV strain WSU 79-1146; cotreatment, 48 h, 20 μM) was 55.95 ± 1.82^e % and the Percentage of protection (FIPV strain WSU 79-1146; cotreatment, 48 h, 20 μM, listed as curcumin) was 56%. For the same molecule, the Percentage of protection (FIPV strain WSU 79-1146; cotreatment, 72 h, 5 μM) was 11.99 ± 3.43^b %, the Percentage of protection (FIPV strain WSU 79-1146; cotreatment, 72 h, 10 μM) was 18.82 ± 1.93^c % and the Percentage of protection (FIPV strain WSU 79-1146; cotreatment, 72 h, 20 μM) was 22.25 ± 2.05^c %. For the same molecule, the Percentage of protection (FIPV strain WSU 79-1146; posttreatment, 48 h, 5 μM) was 0.08 ± 0.13^a %, the Percentage of protection (FIPV strain WSU 79-1146; posttreatment, 48 h, 10 μM) was 13.31 ± 3.93^b % and the Percentage of protection (FIPV strain WSU 79-1146; posttreatment, 48 h, 20 μM) was 17.28 ± 0.78^bc %. For the same molecule, the Percentage of protection (FIPV strain WSU 79-1146; posttreatment, 72 h, 5 μM) was 0.99 ± 1.71^a %, the Percentage of protection (FIPV strain WSU 79-1146; posttreatment, 72 h, 10 μM) was 2.59 ± 1.55^a % and the Percentage of protection (FIPV strain WSU 79-1146; posttreatment, 72 h, 20 μM) was 2.13 ± 1.91^a %. The Percentage of protection (FIPV strain WSU 79-1146; pretreatment, 48 h, 5 μM) was 0.38 ± 0.66^a %, the Percentage of protection (FIPV strain WSU 79-1146; pretreatment, 48 h, 10 μM) was 3.87 ± 1.64^ab % and the Percentage of protection (FIPV strain WSU 79-1146; pretreatment, 48 h, 20 μM) was 12.79 ± 2.27^c %. For the same molecule, the Percentage of protection (FIPV strain WSU 79-1146; pretreatment, 72 h, 5 μM) was 1.74 ± 1.06^ab %, the Percentage of protection (FIPV strain WSU 79-1146; pretreatment, 72 h, 10 μM) was 1.16 ± 1.82^a % and the Percentage of protection (FIPV strain WSU 79-1146; pretreatment, 72 h, 20 μM) was 5.12 ± 2.03^bc %. The “% log10 copy number decrement” value (FIPV; 48 h, 5 μM) was 27.54 ± 3.28^b %, the “3′UTR log10 copy number” value (FIPV; 48 h, 5 μM, FIPV sample 11.86 ± 0.06) was 11.72 ± 0.06^d and the “% log10 copy number decrement” value (FIPV; 48 h, 10 μM) was 40.50 ± 5.41^c %. For the same molecule, the “3′UTR log10 copy number” value (FIPV; 48 h, 10 μM, FIPV sample 11.86 ± 0.06) was 11.63 ± 0.01^cd, the “% log10 copy number decrement” value (FIPV; 48 h, 20 μM) was 59.46 ± 2.45^e % and the “% log10 copy number decrement” value (FIPV; 48 h, 20 μM, listed as curcumin) was 59.46 ± 2.45%. For the same molecule, the “3′UTR log10 copy number” value (FIPV; 48 h, 20 μM, FIPV sample 11.86 ± 0.06) was 11.46 ± 0.05^b, the “% log10 copy number decrement” value (FIPV; 72 h, 5 μM) was 10.70 ± 5.47^b % and the “3′UTR log10 copy number” value (FIPV; 72 h, 5 μM, FIPV sample 12.00 ± 0.03) was 11.95 ± 0.01^cd. For the same molecule, the “% log10 copy number decrement” value (FIPV; 72 h, 10 μM) was 26.92 ± 5.93^cd %, the “3′UTR log10 copy number” value (FIPV; 72 h, 10 μM, FIPV sample 12.00 ± 0.03) was 11.86 ± 0.06^abc and the “% log10 copy number decrement” value (FIPV; 72 h, 20 μM) was 26.38 ± 2.75^c %. For the same molecule, the “3′UTR log10 copy number” value (FIPV; 72 h, 20 μM, FIPV sample 12.00 ± 0.03) was 11.87 ± 0.04^abc and the “Exposure up to which no cytotoxic effect was observed” value (different cells) was 30 µM.
